From PMC9496321, “6-Furopyridine Hexamethylene Amiloride Is a Non-Selective P2X7 Receptor Antagonist” (Biomolecules, 2022)

Assays:
[1] = molecular target: T1, hP2X4 (Homo sapiens, UniProt Q99571); experiment: Fura-2AM Ca2+ response assay in HEK-hP2X4 cells; format: cell-based
T1 construct: expressed in transfected cells; host or cells: HEK293 cells, transient transfection
T1 sequence (Q99571 1-388): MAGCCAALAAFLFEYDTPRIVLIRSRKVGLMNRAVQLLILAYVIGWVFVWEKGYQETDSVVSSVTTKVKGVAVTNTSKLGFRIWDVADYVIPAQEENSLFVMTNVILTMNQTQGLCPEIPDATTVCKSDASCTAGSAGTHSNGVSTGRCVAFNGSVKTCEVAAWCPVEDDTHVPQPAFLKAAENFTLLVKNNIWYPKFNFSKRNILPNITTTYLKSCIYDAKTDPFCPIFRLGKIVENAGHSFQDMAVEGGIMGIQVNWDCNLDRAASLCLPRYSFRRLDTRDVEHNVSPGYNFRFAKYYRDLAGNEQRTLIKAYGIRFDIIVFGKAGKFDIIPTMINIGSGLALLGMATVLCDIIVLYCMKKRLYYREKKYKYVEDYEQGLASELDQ
Protocol: HEK293 cells were plated at 3.5 × 10^5 cells/well in 2 mL of complete DMEM/F12 medium and incubated (37 °C, 95% air/5% CO2, overnight). Cells were transfected with mP2X7-GFP (HEK-mP2X7), cP2X7-GFP (HEK-cP2X7) or hP2X4-EmGFP (HEK-hP2X4) plasmids, or mock transfected with an equivalent volume of sterile Milli-Q water (Merck Millipore, Burlington, NJ, USA), using Lipofectamine 3000 according to the manufacturer’s instructions. Cells were used for assays 48 h post-transfection. To determine transfection efficiency, cells were washed twice with D-PBS and data collected with an LSR Fortessa X-20 flow cytometer (BD Biosciences). The proportion of GFP positive cells was determined using FlowJo software v8.7.1 (BD Biosciences).
Ca^2+ response assays were conducted as described. […] Fura-2 fluorescence at 510 nm was measured every 5 s using a FlexStation 3 (Molecular Devices, San Jose, CA, USA). […] Relative changes in intracellular Ca^2+ were calculated using the ratio of Fura-2AM fluorescence at 510 nm following excitation at 340 nm and 380 nm (F340nm/380nm). […] To determine relative P2X-mediated Ca^2+ responses, the area under the curve from 100 to 180 s was calculated with GraphPad Prism. To determine P2Y-mediated Ca^2+ responses the area under the curve from 30 to 100 s was calculated. In both cases, ATP-induced responses were calculated by subtracting the corresponding basal response. […]

[2] = system: P2X7-mediated CD23 shedding; experiment: CD23 shedding assay in RPMI8226 cells; format: cell-based, human
Protocol: CD23 shedding from RPMI8226 cells was conducted as described, except using LDM. Briefly, 1 × 10^6 cells in LDM were added to individual tubes and pre-incubated in the absence or presence of compound (or vehicle) (37 °C, 15 min). […] Cells were stained in the absence or presence of anti-CD23 mAb with 7AAD (on ice, 30 min, dark), washed once with D-PBS and data were collected using an LSR Fortessa X-20 flow cytometer. CD23 MFI on live cells was determined using FlowJo, with CD23 expression defined as the difference in MFI between cells stained in the presence or absence of anti-CD23 mAb. ATP-induced shedding was normalised to the maximal ATP-induced response in each experiment.

[3] = system: human uPA; design: method as in PMID 33804289; details: cited from earlier work
[4] = molecular target: T2, P2X7 (Homo sapiens, UniProt Q99572); experiment: Plate-based flow cytometric YO-PRO-1 dye uptake compound screen in RPMI8226 cells; format: cell-based; design: endogenous in cells; host or cells: RPMI8226 cells; details: RPMI8226 cells, plate-based screen
T2 sequence (Q99572 1-595): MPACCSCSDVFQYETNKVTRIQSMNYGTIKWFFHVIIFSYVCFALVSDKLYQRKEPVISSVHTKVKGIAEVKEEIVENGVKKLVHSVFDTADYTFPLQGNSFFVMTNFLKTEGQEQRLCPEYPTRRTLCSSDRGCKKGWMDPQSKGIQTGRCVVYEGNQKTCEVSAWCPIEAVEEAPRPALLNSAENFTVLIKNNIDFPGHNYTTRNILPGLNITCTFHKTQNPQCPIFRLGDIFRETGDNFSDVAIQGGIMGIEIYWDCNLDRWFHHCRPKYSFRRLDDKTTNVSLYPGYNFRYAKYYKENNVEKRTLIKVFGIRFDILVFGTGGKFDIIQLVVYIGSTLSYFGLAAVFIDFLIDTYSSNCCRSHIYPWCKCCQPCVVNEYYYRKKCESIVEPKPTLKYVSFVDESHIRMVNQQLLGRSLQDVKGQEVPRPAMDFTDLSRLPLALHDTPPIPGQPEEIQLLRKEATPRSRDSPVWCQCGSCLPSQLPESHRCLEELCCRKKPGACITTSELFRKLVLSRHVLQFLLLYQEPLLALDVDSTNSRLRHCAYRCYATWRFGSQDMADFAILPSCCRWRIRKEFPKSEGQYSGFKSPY
Protocol: RPMI8226 cells were washed thrice with low-divalent medium (LDM) (145 mM NaCl, 2 mM KCl, 0.2 mM CaCl2, 13 mM D-glucose and 10 mM HEPES, pH 7.5) and 1 × 10^5 cells were added to each well of a 96-well flat-bottomed plate. Amiloride derivatives, at 10 μM (final concentration 5 μM) or vehicle (DMSO) were added, and plates pre-incubated (37 °C, 15 min). […] Wells were washed twice with LDM (300× g, 5 min) and cells were resuspended in LDM. Data was acquired with an Attune NxT Flow Cytometer an Autosampler (Thermo Fisher Scientific). Mean fluorescent intensity (MFI) of YO-PRO-1^+ uptake was determined using FlowJo.

Row | Structure (SMILES) | inhibition at 100 µM [1] [%] | IC50 ([1]; read-out: IC50, hP2X4-mediated Ca2+ flux) [µM] | blockade of ATP-induced CD23 shedding ([2]; 30 μM compound, 200 μM ATP) [%] | IC50 ([2]; Homo sapiens, RPMI-8226, read-out: IC50, ATP-induced CD23 shedding) [µM] | inhibition of human uPA [3] | EC50 [4] [µM] | EC50 ([2]; Homo sapiens, RPMI-8226, read-out: EC50 of ATP, CD23 shedding, RPMI8226 cells) [µM] | ATP concentration giving maximal CD23 shedding ([2]; RPMI8226 cells) [µM]
1 | N=C(N)NC(=O)c1nc(-c2cc3cnccc3o2)c(N2CCCCCC2)nc1N [6-FPHMA, 6-furopyridine-substituted 5-(N,N-hexamethylene) amiloride] | 100 | 3.95 ± 0.19 | 97 | 2.3 ± 0.5 | inhibit |  |  | 
2 | Nc1ncnc2c1ncn2[C@@H]1O[C@H](COP(=O)(O)OP(=O)(O)OP(=O)(O)O)[C@@H](O)[C@H]1O [ATP, adenosine 5′-triphosphate] |  |  |  |  |  | ~250 | 112 ± 28 | 200
